Source: ChEMBL document CHEMBL1158328, “Three new pseudodistomins, piperidine alkaloids from the ascidian Pseudodistoma megalarva” (1997)

Experiments:
Assay type in all cases: functional
Saccharomyces cerevisiae [1] = experiment: DNA damaging activity against wild-type Saccharomyces cerevisiae assessed as drug level required to produce 12 mm zone of inhibition assessed per 100 uL after 48 hrs
Saccharomyces cerevisiae [2] = experiment: DNA damaging activity against RAD52 DNA repair gene/topoisomerase 1 deficient Saccharomyces cerevisiae GAL4:RAD52 mutant assessed as drug level required to produce 12 mm zone of inhibition assessed per 100 uL in glucose medium after 48 hrs
Saccharomyces cerevisiae [3] = experiment: DNA damaging activity against RAD52 DNA repair gene/topoisomerase 1 deficient Saccharomyces cerevisiae GAL4:RAD52 mutant assessed as drug level required to produce 12 mm zone of inhibition assessed per 100 uL in galactose medium after 48 hrs
Saccharomyces cerevisiae [4] = experiment: DNA damaging activity against RAD52 DNA repair gene deficient Saccharomyces cerevisiae mutant assessed as drug level required to produce 12 mm zone of inhibition assessed per 100 uL after 48 hrs

Row | Compound | Activity (Saccharomyces cerevisiae [1]) [µg] | Activity (Saccharomyces cerevisiae [2]) [µg] | Activity (Saccharomyces cerevisiae [3]) [µg] | Activity (Saccharomyces cerevisiae [4]) [µg]
1 | COc1cc(NS(C)(=O)=O)ccc1Nc1c2ccccc2nc2ccccc12 [AMSACRINE] | >20 | 2.7 | >20 | 8.2
2 | CCCC/C=C/C=C/CCCCC[C@@H]1C[C@@H](O)[C@@H](N)CN1 [PSEUDODISTOMIN B] | 13 | 1.5 | 1.5 | 1.8
3 | CCCC/C=C/C=C/CCC/C=C/C=C/[C@@H]1C[C@@H](O)[C@@H](N)CN1 [PSEUDODISTOMIN F] | 20 | 3.1 | 3.3 | 9
4 | CCCC/C=C/C=C/CCC/C=C/C=C/[C@@H]1C[C@H](O)[C@H](N)CN1 [PSEUDODISTOMIN C] | 38 | 12 | 13 | 20
5 | CO[C@H]1C[C@@H]2CC[C@@H](C)[C@@](O)(O2)C(=O)C(=O)N2CCCC[C@H]2C(=O)O[C@H]([C@H](C)C[C@@H]2CC[C@@H](O)[C@H](OC)C2)CC(=O)[C@H](C)/C=C(\C)[C@@H](O)[C@@H](OC)C(=O)[C@H](C)C[C@H](C)/C=C/C=C/C=C/1C [SIROLIMUS] | 0.00043 | 0.00044 | 0.00074 | 0.00057
6 | CCCC/C=C/C=C/CCCCC[C@@H]1C[C@H](O)[C@H](N)CN1 [PSEUDODISTOMIN E] | 12 | 1.8 | 2.3 | 4.3
7 | CCCC/C=C/C=C/CCCCC[C@@H]1C[C@H](O)[C@@H](N)CN1 [PSEUDODISTOMIN D] | 11 | 1.9 | 2 | 3.8
8 | COC1=C(N)C(=O)c2nc(-c3nc(C(=O)O)c(C)c(-c4ccc(OC)c(OC)c4O)c3N)ccc2C1=O [STREPTONIGRIN] | >0.1 | 0.009 | >0.1 | 0.012
